Measured values as given in patent US20130109620A1, “BALAGLITAZONE COMPOSITIONS AND METHODS” (RHEOSCIENCE A/S, priority 2009, published 2013).
Where a name gives a salt, the structure may show the parent alone. Read-outs that look alike come from different tables or passages of the source. Each block holds one compound with its values, some of them ahead of it.

Key:
[1] = test system: T2D patients on stable insulin therapy; test: 26-week clinical study: body composition and total body BMD by DXA; assay type: in vivo, human; details: 26 weeks
Procedure: All tablets were contained in an identical capsule. Subjects, study-site personnel, and sponsors were all blinded. Body composition was measured by Dual Energy X-ray Absorptiometry (“DXA”) on visits 2 and 8, in which total body lean (“LTM”), fat tissue mass (“FTM”), and bone mineral density (“BMD”) were measured. Subjects were instructed to fast, beginning at 10 PM the night before body composition measurements. […] The scans were conducted using Lunar DPX (GE Healthcare Worldwide), Hologic™ (Hologic™, Hologic (UK) Limited, UK), or Norland (Norland Medical Systems, Inc.) whole body scanners, and each individual was scanned with the same scanner at both visits.

[2] = test system: T2D patients on stable insulin therapy; test: 26-week clinical study: serum biochemistry (ALP, lipids, NT-proBNP); assay type: in vivo, human; details: 26 weeks
Procedure: All tablets were contained in an identical capsule. Subjects, study-site personnel, and sponsors were all blinded. One screening visit was conducted four weeks before randomization, and at week zero, subjects meeting the inclusion and exclusion criteria were assessed for safety. Subjects visited the clinics at the screening visit, at baseline, and at weeks 4, 8, 12, 16, 20 and 26. At each visit, fasting blood samples were collected for analysis of glycemic control, lipids, and clinical chemistry. All laboratory analyses were performed by a central laboratory.

[3] = test system: T2D patients on stable insulin therapy; test: 26-week clinical study: adverse events and tolerability; details: for subjects with AEs of special interest (strain on the heart or bone fractures): placebo 12%; for subjects who withdrew due to an AE: placebo 15%
[4] = 26-week clinical study: body weight; assay type: in vivo, human; details: 26 weeks, p<0.0001
Source text: (§1) All tablets were contained in an identical capsule. Subjects, study-site personnel, and sponsors were all blinded.

[5] = test system: T2D patients on stable insulin therapy; test: 26-week clinical study: glycemic control (HbA1c, FSG, 7-point glucose, serum insulin, insulin dose); assay type: in vivo, human; details: for HbA1c level decrease compared to placebo / post-prandial glucose reduction (7-point glucose test) compared to placebo / fasting serum glucose (FSG) reduction compared to placebo: 26 weeks
Source text: Subjects were required to meet the following criteria to be included in the study: type 2 diabetes mellitus being diagnosed at least three months earlier according to the 1999 World Health Organisation criteria; age ≧18 years; body mass index (“BMI”)≧25 kg/m^2; HbA1c≧7%; and treatment with insulin on a stable dose of at least 30 U/day (±4 U/day), for at least 75 days, although insulin adjustments to resolve short term acute disease were permitted. […] All tablets were contained in an identical capsule. Subjects, study-site personnel, and sponsors were all blinded. One screening visit was conducted four weeks before randomization, and at week zero, subjects meeting the inclusion and exclusion criteria were assessed for safety. Subjects visited the clinics at the screening visit, at baseline, and at weeks 4, 8, 12, 16, 20 and 26. At each visit, fasting blood samples were collected for analysis of glycemic control, lipids, and clinical chemistry. All laboratory analyses were performed by a central laboratory. Subjects were instructed to keep their usual diet. They were supplied with a plasma glucose meter and instructed regarding how to obtain 7-point plasma glucose profiles. The values of the 7-point measurement performed within the last week before visits 2, 3, 4, 5, 6, 7 and 8 were included in the study. The 7-point plasma glucose profile consisted of glucose levels before each meal (breakfast, lunch, and dinner), 90 minutes after the start of each of those meals, and at bedtime.

[6] = test system: T2D patients on stable insulin therapy; test: 26-week clinical study: lower leg volume by volume of water displacement (VWD); assay type: in vivo, human; details: 26 weeks
Procedure: as §1
Lower leg volume of both legs was determined using the volume of water displacement (“VWD”) method at visits 2 and 8, using Partial Leg Baseline Volumetric Edema Gauges (26).

[7] = test system: T2D patients on stable insulin therapy; test: 26-week clinical study: systolic and diastolic blood pressure; assay type: in vivo, human; details: 26 weeks, placebo −1.7
Source text: as §1
Any abnormalities were registered.

[8] = subjects on stable insulin therapy, 24-week period, reference (28), cited from earlier work
[9] = pioglitazone 45 mg once daily, p<0.0001
[10] = balaglitazone 10 mg once daily, p<0.01
[11] = balaglitazone 20 mg once daily, p<0.0001

SMILES: CCc1ccc(CCOc2ccc(CC3SC(=O)NC3=O)cc2)nc1 (racemic) [pioglitazone, [(±)-5-[[4-[2-(5-ethyl-2-pyridinyl)ethoxy]phenyl]methyl]-2,4-]thiazolidinedione monohydrochloride, reference compound]
total body bone mineral density (TB-BMD) compared with placebo ([1]; pioglitazone 45 mg once daily, no significant change): trend toward loss of bone
serum NT-proBNP compared to placebo ([2]; pioglitazone 45 mg once daily): significant increase
influenza, total number of events ([3]; pioglitazone 45 mg group): 10
number of heart failures ([3]; pioglitazone 45 mg group): 3
subjects reporting adverse events ([3]; pioglitazone 45 mg group, out of 102 subjects): 75 subjects
subjects reporting influenza ([3]; pioglitazone 45 mg group, placebo 3%): 9%
subjects reporting nasopharyngitis ([3]; pioglitazone 45 mg group, placebo 10%): 3%
subjects with AEs of special interest (strain on the heart or bone fractures) ([3]; pioglitazone 45 mg group): 25%
subjects who withdrew due to an AE ([3]; pioglitazone 45 mg group): 8%
body weight increase compared to placebo ([4]; pioglitazone 45 mg once daily): 4.5 kg
HbA1c level decrease compared to placebo [5, 9]: −1.22%
post-prandial glucose reduction (7-point glucose test) compared to placebo [5, 9]: -2.6 mmol/L
fasting serum glucose (FSG) reduction compared to placebo ([5]; pioglitazone 45 mg once daily, p<0.05): -1.4 mmol/L
lower leg volume (VWD) compared with placebo ([6]; pioglitazone 45 mg once daily): significantly increased lower leg volume
systolic blood pressure reduction ([7]; pioglitazone 45 mg once daily, SE 0.9): −3.0 mmHg
diastolic blood pressure reduction ([7]; pioglitazone 45 mg once daily, SE 1.5): −3.9 mmHg
weight increase ([8]; pioglitazone 30 mg): 2.9 kg
weight increase ([8]; pioglitazone 45 mg): 3.4 kg

whole body fat accumulation compared to pioglitazone 45 mg ([1]; balaglitazone 10 mg once daily): trend toward lower fat accumulation
fat mass gain in the legs compared to the pioglitazone group [1, 10]: significantly less fat mass
reduction in serum ALP compared to the pioglitazone 45 mg group ([2]; balaglitazone 10 mg once daily): significantly smaller
serum NT-proBNP compared to placebo ([2]; balaglitazone 10 mg once daily): only a trend was observed
serum NT-proBNP compared to placebo ([2]; balaglitazone 20 mg once daily): significant increase
increase in NT-proBNP compared to the pioglitazone 45 mg group ([2]; balaglitazone 20 mg once daily, p<0.01): significantly larger
lower leg volume (VWD) compared with placebo ([6]; balaglitazone 10 mg once daily): no significant increase in leg volume
lower leg volume (VWD) compared with placebo ([6]; balaglitazone 20 mg once daily): significantly increased lower leg volume
SMILES: Cn1c(COc2ccc(CC3SC(=O)NC3=O)cc2)nc2ccccc2c1=O (stereo not shown) [balaglitazone, 5[4-(3-methyl-4-oxo-3,4-dihydroquinazolin-2-ylmethoxy)-benzyl]-thiazolidine-2,4-dione]
total body bone mineral density (TB-BMD) compared to placebo ([1]; balaglitazone 10 mg and 20 mg groups): neither of the balaglitazone groups showed any indication of bone loss
LDL cholesterol levels and total cholesterol ([2]; balaglitazone 10 mg and 20 mg): neither LDL cholesterol levels nor total cholesterol changed
HDL cholesterol levels compared to placebo ([2]; balaglitazone 10 mg and 20 mg, p<0.001 for both groups): significantly increased
tolerability throughout the study ([3]; balaglitazone 10 mg and 20 mg, 26 weeks): well-tolerated
heart failure, peripheral oedema and myocardial infarction compared to the remaining groups ([3]; balaglitazone 10 mg group): numerically lower
number of heart failures ([3]; balaglitazone 10 mg group): 0
percentage of serious adverse events ([3]; balaglitazone 10 mg group): 6%
subjects reporting adverse events ([3]; balaglitazone 10 mg group, out of 99 subjects): 81 subjects
subjects with AEs of special interest (strain on the heart or bone fractures) ([3]; balaglitazone 10 mg group): 10%
subjects who withdrew due to an AE ([3]; balaglitazone 10 mg group): 16%
percentage of serious adverse events ([3]; balaglitazone 20 mg group): 11%
subjects reporting adverse events ([3]; balaglitazone 20 mg group, out of 99 subjects): 77 subjects
subjects with AEs of special interest (strain on the heart or bone fractures) ([3]; balaglitazone 20 mg group): 19%
subjects who withdrew due to an AE ([3]; balaglitazone 20 mg group): 17%
number of fractures observed ([3]; balaglitazone 20 mg group, the only fracture in the study): one
body weight increase compared to placebo ([4]; balaglitazone 10 mg once daily): 3.1 kg
body weight increase compared to placebo ([4]; balaglitazone 20 mg once daily): 4.7 kg
glucose-lowering capabilities compared to pioglitazone 45 mg ([5]; balaglitazone 10 mg dose): equipotent
HbA1c level decrease compared to placebo ([5]; balaglitazone 10 mg once daily, p<0.0001): −0.99%
post-prandial glucose reduction (7-point glucose test) compared to placebo [5, 10]: -1.6 mmol/L
fasting serum glucose (FSG) reduction compared to placebo ([5]; balaglitazone 10 mg once daily, p=0.01): -1.4 mmol/L
HbA1c level decrease compared to placebo [5, 11]: −1.11%
post-prandial glucose reduction (7-point glucose test) compared to placebo [5, 11]: -2.5 mmol/L
fasting serum glucose (FSG) reduction compared to placebo ([5]; balaglitazone 20 mg once daily, p<0.001): -1.8 mmol/L
diastolic blood pressure reduction ([7]; balaglitazone 10 mg once daily, SE 0.9): −1.8 mmHg
diastolic blood pressure reduction ([7]; balaglitazone 20 mg once daily, SE 1.0): −2.2 mmHg
